According to patent publication US20260198493A1, “HYDRAZIDE COMPOUND AND AGRICULTURAL/HORTICULTURAL FUNGICIDE” (Nippon Soda Co., Ltd., priority 2022, published 2026):

Experiments:
Botrytis cinerea [1] = assay type: cell-based; details: 120 h, 25 ppm by volume, Vogel medium, 20° C., five days, dark, read-out: growth inhibition ratio
Fusarium graminearum = test: microbe, parasite or virus in culture; assay type: cell-based; details: 96 h, read-out: growth inhibition ratio
Botrytis cinerea [2] = test: Control test of cucumber gray mold (sprayed young cucumber seedlings); assay type: in vivo; details: 96 h, four days after inoculation; for pest or weed control at 25 ppm: 25 ppm by mass spray; for pest or weed control at 125 ppm: 125 ppm by mass spray
Method: Then, the drug liquid was sprayed onto young cucumber seedlings cultivated in a nursery pot (variety “Jihai”-based, cotyledon stage), and then air-dried. […] They were left still in a moist room at 20° C. Four days after inoculation, leaves of the young cucumber seedlings were visually observed, and the control value was calculated from the lesion area ratio in accordance with the following equation. [formula]

Venturia inaequalis = test: Control test of apple scab disease (sprayed young apple seedlings); assay type: in vivo; details: 125 ppm by mass spray, 12 to 14 days after inoculation
[3] = tested on: Erysiphe graminis f.sp.tritici; test: Control test of wheat powdery mildew disease (sprayed young wheat seedlings); assay type: in vivo; details: Blumeria graminis, 144 h, 125 ppm by mass spray, six days after inoculation
Colletotrichum acutatum = test: Fungicidal effect test against fungi causing apple anthracnose; details: 96 h, read-out: growth inhibition ratio
Glomerella cingulata = test: Fungicidal effect test against fungi causing grape ripe rot disease; details: Colletotrichum gloeosporioides, 72 h, read-out: growth inhibition ratio

COC(=O)N(Cc1ccc(C)cc1C)NC(=O)c1cc(C)nnc1Oc1cccc(C(F)(F)F)c1 [b-53]
≥ 75%: inhibition of growth at 25 ppm (Botrytis cinerea [1]) | inhibition of growth at 25 ppm (Fusarium graminearum) | pest or weed control at 25 ppm (Botrytis cinerea [2]) | pest or weed control at 125 ppm (Botrytis cinerea [2]) | pest or weed control at 125 ppm (Venturia inaequalis) | pest or weed control at 125 ppm [3] | inhibition of growth at 25 ppm (Colletotrichum acutatum) | inhibition of growth at 25 ppm (Glomerella cingulata)

COC(=O)N(Cc1ccc(C)cc1OC)NC(=O)c1cc(C)nnc1Oc1cccc(C2CC2)c1F [b-153]
≥ 75%: inhibition of growth at 25 ppm (Botrytis cinerea [1]) | inhibition of growth at 25 ppm (Fusarium graminearum) | pest or weed control at 25 ppm (Botrytis cinerea [2]) | pest or weed control at 125 ppm (Botrytis cinerea [2]) | pest or weed control at 125 ppm (Venturia inaequalis) | pest or weed control at 125 ppm [3] | inhibition of growth at 25 ppm (Colletotrichum acutatum) | inhibition of growth at 25 ppm (Glomerella cingulata)

COC(=O)N(Cc1ccc(C)cc1C)NC(=O)c1c(Oc2cccc(C3CC3)c2F)nnc2ccccc12 [b-90, Methyl 2-(3-(3-cyclopropyl-2-fluorophenoxy)cinnoline-4-carbonyl)-1-(2,4-dimethylbenzyl)hydrazine-1-carboxylate]
≥ 75%: inhibition of growth at 25 ppm (Botrytis cinerea [1]) | inhibition of growth at 25 ppm (Fusarium graminearum) | pest or weed control at 25 ppm (Botrytis cinerea [2]) | pest or weed control at 125 ppm (Botrytis cinerea [2]) | pest or weed control at 125 ppm (Venturia inaequalis) | pest or weed control at 125 ppm [3] | inhibition of growth at 25 ppm (Colletotrichum acutatum) | inhibition of growth at 25 ppm (Glomerella cingulata)
